Test results published in patent US20230055237A1, “COMPOUNDS AND METHODS FOR THE TREATMENT OF CYSTIC FIBROSIS” (Flatley Discovery Lab, LLC, priority 2019, published 2023).

Target: T1, CFTR (Homo sapiens, UniProt P13569, DEL508-508)
T1 construct: Primary CF airway epithelial cells were obtained from the UNC Cystic Fibrosis Tissue Procurement and Cell Culture Core; host or cells: primary CF airway epithelial cells, differentiated at the air-liquid interface
Experiment: Equivalent current assay in primary CF airway epithelial cells (NAUC, combination with 1st site corrector FDL169 or VX-809)
Type: cell-based
Conditions: 37° C., 24 h
Procedure: Primary CF airway epithelial cells were obtained from the UNC Cystic Fibrosis Tissue Procurement and Cell Culture Core. The cells are grown at 37° C. in a Heracell 150i incubator using growth media (BEGM, Fischer). […] Two days before the Ussing assay the mucus on the apical surface of the cells was aspirated after incubating with 200 μL of differentiation media for at least thirty (30) minutes. One day before the Ussing assay test compounds were added to the basolateral surface of the cells at various test concentrations dissolved in DMSO. Duplicate wells were prepared giving a n=3 or n=4 protocol.
Cells were treated for 24 hours with various combinations and concentrations of the test articles, reference standard (3 μM VX809 or 3 μM FDL169, positive control). Compounds stock solutions were prepared in DMSO and diluted 1/1000 into ALI media to their final assay concentration. Cells were treated with combination solutions (2 mL of each dilution) and incubated at 37° C. for 24 h.
For the equivalent current assay, cells on four Transwell (24-well) plates were treated. Each Transwell plate was filled with 200 μl of HBS on the apical surface and 2 ml on the basolateral surface. Plates were placed horizontally in a heated mount at 37° C., and equilibrated for several minutes. Resting current was measured for 15 min and then blocked by the apical addition of 5 μM benzamil. After 20 min, 10 μM forskolin and 1 μM VX770 were added to both the apical and basolateral side to stimulate CFTR. An increase in chloride current is seen as an upward deflection of the trace.
The raw data, current vs. time for the Ussing chamber (sampling interval: 10 s) and voltage vs. time and resistance vs. time for the equivalent current assay (sampling interval: 5 minutes) were transferred to Excel (Microsoft Office Professional, version 14.0.7106.5003) for analysis. […] This average is equivalent to the sum of the average forskolin activated and the average VX770-potentiated currents. The average current measured in vehicle (0.1% DMSO) treated cells, Iv, was subtracted from the current for the test article, ITA, or from the corrector reference standard VX809 (3 uM ISTD). For replicate measurements, the average vehicle subtracted response for the test article, was normalized to the average vehicle subtracted inhibitor response of the reference corrector VX809 (3 μM).
A second endpoint, for the equivalent current assay, evaluated was NAUC, the normalized area under the curve (AUC) measuring the response after addition of forskolin and VX770 to the time point right before the addition of the CFTR inhibitor. The AUC is effectively the average response multiplied by the duration of the response.
NAUCTA=[AUCTA−AUCV,ave]/[AUCVx809r,ave−AUCV,ave] (Equation 2).
Experiments were run with a minimum of n=4 replicates per concentration. Since the distribution for the ratio of two normal distributions is a Cauchy distribution, the median value must be used for the average and the average deviation must be used for the error of all normalized data.
E=Emin+(Emax−Emin)/(1+10^((LogEC5OS)*nH)) (Equation 3)

[1] = test compound 3 μM in combination with 1st site corrector VX-809 (3 μM)
[2] = test compound 10 μM in combination with 1st site corrector VX-809 (3 μM)
[3] = test compound 1 μM in combination with 1st site corrector FDL169 (3 μM)
[4] = test compound 3 μM in combination with 1st site corrector FDL169 (3 μM)
[5] = test compound 1 μM in combination with 1st site corrector VX-809 (3 μM)
[6] = test compound 10 μM in combination with 1st site corrector FDL169 (3 μM)

T1 sequence (P13569 with tags, fused parts or gaps DEL508-508): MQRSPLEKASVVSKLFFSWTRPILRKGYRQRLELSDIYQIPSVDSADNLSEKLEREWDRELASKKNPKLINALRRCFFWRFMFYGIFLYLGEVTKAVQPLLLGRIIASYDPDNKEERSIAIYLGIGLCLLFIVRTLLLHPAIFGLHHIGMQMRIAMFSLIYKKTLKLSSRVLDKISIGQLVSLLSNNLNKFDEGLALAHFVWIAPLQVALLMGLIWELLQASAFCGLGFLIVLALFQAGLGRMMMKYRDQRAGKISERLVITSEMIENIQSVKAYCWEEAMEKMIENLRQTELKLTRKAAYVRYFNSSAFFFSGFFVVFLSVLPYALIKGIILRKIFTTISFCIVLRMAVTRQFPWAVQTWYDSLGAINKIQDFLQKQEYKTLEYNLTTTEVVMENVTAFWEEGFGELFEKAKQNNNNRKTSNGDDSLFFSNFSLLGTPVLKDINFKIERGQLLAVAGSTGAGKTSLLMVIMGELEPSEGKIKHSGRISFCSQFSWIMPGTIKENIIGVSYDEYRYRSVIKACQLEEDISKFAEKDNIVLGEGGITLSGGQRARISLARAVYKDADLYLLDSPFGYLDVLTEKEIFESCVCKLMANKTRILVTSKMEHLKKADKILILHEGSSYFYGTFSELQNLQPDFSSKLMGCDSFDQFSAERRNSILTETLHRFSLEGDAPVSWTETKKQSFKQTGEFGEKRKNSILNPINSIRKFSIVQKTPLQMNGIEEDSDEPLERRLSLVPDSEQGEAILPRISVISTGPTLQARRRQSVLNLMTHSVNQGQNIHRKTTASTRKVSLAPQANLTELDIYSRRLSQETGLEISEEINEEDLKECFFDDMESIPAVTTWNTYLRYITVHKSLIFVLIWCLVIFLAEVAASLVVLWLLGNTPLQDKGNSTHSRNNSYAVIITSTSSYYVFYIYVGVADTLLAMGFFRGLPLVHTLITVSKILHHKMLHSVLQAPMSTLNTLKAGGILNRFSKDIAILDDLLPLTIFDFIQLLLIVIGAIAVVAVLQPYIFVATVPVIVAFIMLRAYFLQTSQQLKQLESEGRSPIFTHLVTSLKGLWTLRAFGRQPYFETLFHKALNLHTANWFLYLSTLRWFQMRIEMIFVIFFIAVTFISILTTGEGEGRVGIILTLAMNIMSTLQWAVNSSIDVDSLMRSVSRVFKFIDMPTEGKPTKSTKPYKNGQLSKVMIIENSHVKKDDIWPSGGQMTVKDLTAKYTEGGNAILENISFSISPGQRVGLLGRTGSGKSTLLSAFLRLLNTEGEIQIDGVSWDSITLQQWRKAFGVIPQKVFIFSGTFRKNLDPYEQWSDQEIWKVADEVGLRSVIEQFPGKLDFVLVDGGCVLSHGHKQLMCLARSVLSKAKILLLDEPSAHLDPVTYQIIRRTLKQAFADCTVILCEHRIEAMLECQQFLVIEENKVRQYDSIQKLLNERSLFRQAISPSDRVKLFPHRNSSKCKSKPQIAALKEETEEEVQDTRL

O=C(Nc1cncc(C(F)(F)F)n1)C1C2CC3(CC3)CN2C2(C(=O)Nc3c(Cl)cc(Cl)cc32)C1C(=O)O (stereo not drawn) [Example 21]
Nauc @ 3 μM [1]: +++ (NAUC “+++” refers to an observed NAUC>170% of positive control)
Nauc @ 10 μM [2]: +++ (NAUC “+++” refers to an observed NAUC>170% of positive control)

O=C(O)[C@H]1[C@@H](C(=O)N(CC2CC2)c2cc(Cl)cc(Cl)c2)[C@H]2CCCN2C12C(=O)Nc1c(Cl)cc(Cl)cc12 (single isomer, unassigned) [Example 83b]
Nauc @ 1 μM [3]: +++ (NAUC “+++” refers to an observed NAUC>170% of positive control)
Nauc @ 3 μM [4]: +++ (NAUC “+++” refers to an observed NAUC>170% of positive control)

CC(C)(C)c1cccc(C(C)(C)CNC(=O)C2C3CC(F)(F)CN3C3(C(=O)Nc4c(Cl)cc(Cl)cc43)C2C(=O)O)c1 (stereo not drawn) [Example 64]
Nauc @ 10 μM [2]: +++ (NAUC “+++” refers to an observed NAUC>170% of positive control)

Cc1ccc(C(F)(F)C2NC3(C(=O)Nc4c(Cl)cc(Cl)cc43)C(C(=O)O)C2C(=O)Nc2cc(Cl)cc(Cl)c2)cc1 (stereo not drawn) [Example 71.a]
Nauc @ 10 μM [2]: +++ (NAUC “+++” refers to an observed NAUC>170% of positive control)

O=C(Nc1nccc2ccccc12)[C@H]1[C@H]2CC(F)(F)CN2[C@]2(C(=O)Nc3c(Cl)cc(Cl)cc32)[C@H]1C(=O)O [Example 122]
Nauc @ 1 μM [5]: + (NAUC “+” refers to an observed NAUC <140% of positive control)
Nauc @ 3 μM [1]: + (NAUC “+” refers to an observed NAUC <140% of positive control)

CN(C(=O)[C@H]1[C@H]2CC(F)(F)CN2[C@]2(C(=O)Nc3c(Cl)cc(Cl)cc32)[C@H]1C(=O)O)c1ccccc1-c1ccccc1 [Example 162]
Nauc @ 1 μM [3]: +++ (NAUC “+++” refers to an observed NAUC>170% of positive control)
Nauc @ 3 μM [4]: +++ (NAUC “+++” refers to an observed NAUC>170% of positive control)
Nauc @ 10 μM [6]: +++ (NAUC “+++” refers to an observed NAUC>170% of positive control)

O=C(Nc1ccc2ccccc2c1)[C@H]1[C@H]2CC(F)(F)CN2[C@]2(C(=O)Nc3c(Cl)cc(Cl)cc32)[C@H]1C(=O)O [Example 115]
Nauc @ 1 μM [5]: + (NAUC “+” refers to an observed NAUC <140% of positive control)
Nauc @ 3 μM [1]: + (NAUC “+” refers to an observed NAUC <140% of positive control)
Nauc @ 10 μM [2]: + (NAUC “+” refers to an observed NAUC <140% of positive control)

O=C(Nc1cc(Cl)cc(Cl)c1)C1C(C(F)(F)c2ccccn2)NC2(C(=O)Nc3c(Cl)cc(Cl)cc32)C1C(=O)O (stereo not drawn) [Example 72.c]
Nauc @ 10 μM [2]: ++ (NAUC “++” refers to an observed NAUC 170-140% of positive control)

Cn1ncc2cc(NC(=O)[C@H]3[C@H]4CC(F)(F)CN4[C@]4(C(=O)Nc5c(Cl)cc(Cl)cc54)[C@H]3C(=O)O)ccc21 [Example 138]
Nauc @ 1 μM [3]: + (NAUC “+” refers to an observed NAUC <140% of positive control)
Nauc @ 3 μM [4]: + (NAUC “+” refers to an observed NAUC <140% of positive control)

C[C@]1(O)C[C@@H]2[C@H](C(=O)Nc3cc(Cl)cc(Cl)c3)[C@H](C(=O)NO)[C@@]3(C(=O)Nc4c(Cl)cc(Cl)cc43)N2C1 [Example 245, (1′R,2′S,6′S,7a′R)-5,7-dichloro-N1′-(3,5-dichlorophenyl)-N2′,6′-dihydroxy-6′-methyl-2-oxo-1′,2′,5′,6′,7′,7a′-hexahydrospiro[indoline-3,3′-pyrrolizine]-1′,2′-dicarboxamide]
Nauc @ 1 μM [5]: + (NAUC “+” refers to an observed NAUC <140% of positive control)
Nauc @ 3 μM [1]: ++ (NAUC “++” refers to an observed NAUC 170-140% of positive control)
Nauc @ 10 μM [2]: +++ (NAUC “+++” refers to an observed NAUC>170% of positive control)

CC(C)(C)c1cccc(C2(CNC(=O)[C@H]3[C@H]4CC(F)(F)CN4C4(C(=O)Nc5c(Cl)cc(Cl)cc54)[C@H]3C(=O)O)CC2)c1 (stereo partly drawn) [Example 294]
Nauc @ 1 μM [5]: + (NAUC “+” refers to an observed NAUC <140% of positive control)
Nauc @ 3 μM [1]: +++ (NAUC “+++” refers to an observed NAUC>170% of positive control)
Nauc @ 10 μM [2]: +++ (NAUC “+++” refers to an observed NAUC>170% of positive control)

O=C(O)[C@H]1[C@@H](C(=O)N(CC2CC2)c2cccc(CC(F)(F)F)c2)[C@H]2CC(F)(F)CN2[C@]12C(=O)Nc1c(Cl)cc(Cl)cc12 [Example 164]
Nauc @ 1 μM [3]: +++ (NAUC “+++” refers to an observed NAUC>170% of positive control)
Nauc @ 3 μM [4]: +++ (NAUC “+++” refers to an observed NAUC>170% of positive control)
Nauc @ 10 μM [6]: +++ (NAUC “+++” refers to an observed NAUC>170% of positive control)

CN(C(=O)[C@H]1[C@H]2CC(F)(F)CN2[C@]2(C(=O)Nc3c(Cl)cc(Cl)cc32)[C@H]1C(=O)O)c1cccc(-c2ccccc2)c1 [Example 161]
Nauc @ 1 μM [3]: ++ (NAUC “++” refers to an observed NAUC 170-140% of positive control)
Nauc @ 3 μM [4]: +++ (NAUC “+++” refers to an observed NAUC>170% of positive control)
Nauc @ 10 μM [6]: ++ (NAUC “++” refers to an observed NAUC 170-140% of positive control)

CON(C)C(=O)[C@H]1[C@@H](C(=O)Nc2cc(Cl)cc(Cl)c2)[C@H]2CC(F)(F)CN2[C@]12C(=O)Nc1c(Cl)cc(Cl)cc12 [Example 227, (1′R,2′S,3R,7a′R)-5,7-dichloro-N1′-(3,5-dichlorophenyl)-6′,6′-difluoro-N2′-methoxy-N2′-methyl-2-oxo-1′,2′,5′,6′,7′,7a′-hexahydrospiro [indoline-3,3′-pyrrolizine]-1′,2′-dicarboxamide]
Nauc @ 1 μM [5]: + (NAUC “+” refers to an observed NAUC <140% of positive control)
Nauc @ 3 μM [1]: ++ (NAUC “++” refers to an observed NAUC 170-140% of positive control)
Nauc @ 10 μM [2]: ++ (NAUC “++” refers to an observed NAUC 170-140% of positive control)

COc1c(Cl)cc(NC(=O)C2C3CC(F)(F)CN3C3(C(=O)Nc4c(Cl)cc(Cl)cc43)C2C(=O)O)cc1Cl (stereo not drawn) [Example 9]
Nauc @ 3 μM [1]: +++ (NAUC “+++” refers to an observed NAUC>170% of positive control)
Nauc @ 10 μM [2]: +++ (NAUC “+++” refers to an observed NAUC>170% of positive control)

O=C(Nc1cncc(C(F)(F)F)n1)C1C2CC(F)(F)CN2C2(C(=O)Nc3c(Cl)cc(Cl)cc32)C1C(=O)O (stereo not drawn) [Example 23]
Nauc @ 3 μM [1]: ++ (NAUC “++” refers to an observed NAUC 170-140% of positive control)
Nauc @ 10 μM [2]: + (NAUC “+” refers to an observed NAUC <140% of positive control)

O=C(Nc1ccc2nccnc2c1)[C@H]1[C@H]2CC(F)(F)CN2[C@]2(C(=O)Nc3c(Cl)cc(Cl)cc32)[C@H]1C(=O)O [Example 147]
Nauc @ 1 μM [3]: + (NAUC “+” refers to an observed NAUC <140% of positive control)
Nauc @ 3 μM [4]: + (NAUC “+” refers to an observed NAUC <140% of positive control)

O=C(Nc1ccc2ncncc2c1)[C@H]1[C@H]2CC(F)(F)CN2[C@]2(C(=O)Nc3c(Cl)cc(Cl)cc32)[C@H]1C(=O)O [Example 140]
Nauc @ 1 μM [3]: + (NAUC “+” refers to an observed NAUC <140% of positive control)
Nauc @ 3 μM [4]: + (NAUC “+” refers to an observed NAUC <140% of positive control)

Cn1cnc2cc(NC(=O)[C@H]3[C@H]4CC(F)(F)CN4[C@]4(C(=O)Nc5c(Cl)cc(Cl)cc54)[C@H]3C(=O)O)ccc21 [Example 146]
Nauc @ 1 μM [3]: + (NAUC “+” refers to an observed NAUC <140% of positive control)
Nauc @ 3 μM [4]: + (NAUC “+” refers to an observed NAUC <140% of positive control)
